For data set [1], the system named is neurologic toxicity (rotorod test). As to the kind of experiment: Neurologic toxicity, rotorod test, mice (ip). The data set is classed as in vivo. How it is done:
(§1) Tests are conducted in groups of at least 8 mice or rats to determine the intrinsic neurotoxicity (neuromuscular impairment) after administration of the test compound by the route of administration to be used in the pharmacology studies. Neurotoxicity is determined in male CF No 1 mice by the rotarod procedure. Inability of the mouse to maintain its equilibrium in 3 trials during 1 min on this rotating rod (6 rpm) is used as an indication of such impairment. In Sprague-Dawley rats, minimal motor impairment (MMI) is determined by overt evidence of ataxia, abnormal gait, and stance.

Data set [2] concerns maximal electroshock (MES)-induced seizures. Description: Maximal electroshock seizure (MES) test, rat (po). Particulars: Rattus norvegicus. In kind it is in vivo.
Protocol: (§2) The maximal electroconvulsive shock (MES) test is regarded as a standard screen for anticonvulsant activity in terms of inhibition of seizure spread in generalized tonic-clonic seizures.
(§3) Groups of at least 8 male albino CF No. 1 mice or male albino Sprague-Dawley rats are treated with 10 mL/kg i.p. or 4 mL/kg p.o. of the test compound solution, respectively. The electrical stimulus in the MES test is 50 mA at 60 Hz for mice and 150 mA at 60 Hz for rats, both delivered for 0.2 sec. Abolition of the hind leg tonic extensor component of the seizure is used as the endpoint.
In the next data set the test system is behavioral toxicity. Description: Toxicity (behavioral toxicity), rat (po). The data set is classed as in vivo. As to the method:
as §1

In data set [3] the test system is maximal electroshock (MES)-induced seizures. Description: Maximal electroshock seizure (MES) test, mice (ip). In kind it is in vivo. Particulars: for ED50: Mus musculus.
Protocol: as §2, §3
Another data set concerns 6 Hz seizures. Description: 6 Hz seizure model, mice (ip). In kind it is in vivo. Conditions: for 6 Hz, ED50: mice, ip, Table b607; for seizure activity in the 6 Hz seizure model assay: comparable to or exceeding phenyloin and phenobarbital.
Where [4] appears, read: rotorod test, time of peak effect (h) in brackets, Table 2.
Where [5] appears, read: behavioral toxicity, Table b607.
Setting [6] is: mice, ip, time (h) in brackets, (X′—Y′—Z′ group).
Setting [7] is: read-out: MES, ED50, rat, po, Table 3.
Where [8] appears, read: mice, ip, time (h) in brackets, (terminal ring group).
[9] abbreviates: behavioral toxicity, Table b608.
Where [10] appears, read: mice, ip, 95% confidence intervals in parentheses, Table 1.
The mark [11] stands for this setting: mice, ip, time (h) in brackets, Table 3, NINDS ASP.

`C#CCOC[C@H](NC(C)=O)C(=O)NCc1ccc(N=C=S)cc1` [(S)-9, (S)—N-(4-Isothiocyanatobenzyl)-2-acetamido-3-(prop-2-ynyloxy)propanamide] displayed a melting point of 157 to 158 °C. In addition, the “Tox, TD50” value in data set [1] (setting [4]) is on record as more than 300 mg/kg.
On to `COC[C@@H](NC(C)=O)C(=O)NCc1ccc(CCc2cccc(F)c2)cc1` [(R)-13], for which the ED50 in data set [2] (read-out: MES, ED50, rat, po) is less than 30 mg/kg. The “Tox, TD50” value with behavioral toxicity (setting [5]) is >30 [1] milligrams per kilogram.
As to `COC[C@@H](NC(C)=O)C(=O)NCc1ccc(Oc2cccc(F)c2)cc1` [(R)-12, (R)—N-4′-((3″-Fluoro)phenoxy)benzyl 2-N-Acetamido-3-methoxypropionamide], the “MES, ED50” value in data set [3] (setting [6]) is 5.5 [0.25] (3.2-6.3) milligrams per kilogram. For the same molecule, the ED50 in data set [2] (read-out: MES, ED50, rat, po) is less than 10 mg/kg. Besides, the “6 Hz, ED50” value with 6 Hz seizures was ~10 [0.5] milligrams per kilogram. Further, the “Tox, TD50” value in data set [1] (rotorod test, Table b607) is 23 [0.25] (18-28) milligrams per kilogram; in the data set with behavioral toxicity (setting [5]) it was >10 [0.25-4.0] milligrams per kilogram.
For `CC(=O)NC(C(=O)NCc1ccc(C)cc1)c1ccccc1` (centres unmarked) [D, reference compound], in data set [3] (mice (ip), text b213), the ED50 was approximately 300 mg/kg.
In the case of `C=CCOCC(NC(C)=O)C(=O)NCc1ccccc1` (racemic) [(R,S)-11, reference compound], the “MES, ED50” value in data set [3] (mice, ip) is recorded as >30, <100 mg/kg.
With `CC(=O)N[C@@H](C)C(=O)NCc1ccc(OCc2cccc(F)c2)cc1` [(S)-6, (S)—N-4-(3-Fluorobenzyloxy)benzyl 2-Acetamidopropionamide, reference compound], in data set [2] (setting [7]), the ED50 was more than 30 mg/kg. In addition, the “Tox, TD50” value was >300 [0.5] milligrams per kilogram in data set [1] (rotorod test, Table 3) and >30 [0.25 to milligrams per kilogram with behavioral toxicity (behavioral toxicity, Table 3).
Consider `COC[C@@H](NC(C)=O)C(=O)NCc1ccc(OCc2ccccc2F)cc1` [(R)-21, (R)—N-4-(2-Fluorobenzyloxy)benzyl 2-Acetamido-3-methoxypropionamide], for which the “MES, ED50” value in data set [3] (setting [8]) is 6.7 [0.25] (4.8-9.1) milligrams per kilogram. Besides, the “Tox, TD50” value is 37 [0.5] (29-48) milligrams per kilogram in data set [1] (rotorod test, Table b608) and more than 500 milligrams per kilogram with behavioral toxicity (setting [9]).
In the same order, the values of `COC[C@@H](NC(C)=O)C(=O)NCc1ccc(OCc2ccccc2)cc1` [(R)-20, (R)—N-4′-(Benzyloxy)benzyl 2-N-Acetamido-3-methoxypropionamide] are 5.8 [0.25] (4.4-7.2) milligrams per kilogram, 22 [0.25] (19- milligrams per kilogram and >250 [1.0] milligrams per kilogram.
For `CC(=O)NCC(=O)NCc1ccc(OCc2cccc(F)c2)cc1` [compound 5, N-4-(3-Fluorobenzyloxy)benzyl 2-Acetamidoacetamide], the ED50 in data set [2] (setting [7]) is 31 mg/kg. The “Tox, TD50” value was >300 [0.5 and 4.0] milligrams per kilogram in data set [1] (rotorod test, Table 3); >500 [1.0] milligrams per kilogram in the data set with behavioral toxicity (behavioral toxicity, Table 3).
In turn, `COC[C@H](NC(C)=O)C(=O)NCc1ccc(N=[N+]=[N-])cc1` [(S)-5, (S)—N-(4-Azidobenzyl)-2-acetamido-3-methoxypropanamide, reference compound] came in with a Tox, TD50 in the data set with behavioral toxicity (time (h) in brackets, Table 2) of more than 30 mg/kg.
On the same count and under the same terms, then `COC[C@@H](NC(C)=O)C(=O)NCc1ccccc1` [(R)—B, (2R)-2-(acetylamino)-N-benzyl-3-methoxypropanamide, reference compound], with more than 500 mg/kg.
For the molecule `CC(=O)NC(C(=O)NCc1ccccc1)c1ccccc1` (racemic) [(R,S)-6, reference compound], the “MES, ED50” value in data set [3] (setting [10]) is reported as 32 mg/kg.
On to `COC[C@@H](NC(C)=O)C(=O)NCc1ccc(COc2cccc(F)c2)cc1` [(R)-16, (R)—N-4-((3-Fluorophenoxy)methyl)benzyl 2-Acetamido-3-methoxypropionamide], for which, in data set [3] (setting [6]), the “MES, ED50” value was 5.9 [0.25] milligrams per kilogram. Moreover, the ED50 in data set [2] (read-out: MES, ED50, rat, po) worked out at 19 mg/kg. The “Tox, TD50” value in data set [1] (rotorod test, Table b607) is 10 [0.25] milligrams per kilogram; in the data set on behavioral toxicity (setting [5]), >400 [0.5] milligrams per kilogram.
Molecule `C#CCOC[C@@H](NC(C)=O)C(=O)NCc1ccccc1` [(R)-7, (R)—N-Benzyl-2-acetamido-3-(prop-2-ynyloxy)propanamide] gave a melting point of 149 °C.
Consider `COC[C@@H](NC(C)=O)C(=O)NCc1ccc(N=[N+]=[N-])cc1` [(R)-5, (R)—N-(4-Azidobenzyl)-2-acetamido-3-methoxypropanamide, reference compound], for which the Tox, TD50 in the data set on behavioral toxicity (time (h) in brackets, Table 2) is more than 250 mg/kg.
Turning to `COC[C@@H](NC(C)=O)C(=O)NCc1ccc(OCc2ccc(F)cc2)cc1` [(R)-22, (R)—N-4-(4-Fluorobenzyloxy)benzyl 2-Acetamido-3-methoxypropionamide], the “Tox, TD50” value in the data set with behavioral toxicity (setting [9]) is given as more than 500 milligrams per kilogram.
Consider `C#CCOCC(NC(C)=O)C(=O)NCc1ccccc1` (centres unmarked) [compound 7], for which the “seizure activity in the 6 Hz seizure model assay” value in the data set on 6 Hz seizures is recorded as “excellent seizure activity”.
`COC[C@@H](NC(C)=O)C(=O)NCc1ccc(/C=C/c2cccc(F)c2)cc1` [(R)-14, (2-R,E)-N-4-(3-Fluorostyryl)benzyl 2-Acetamido-3-methoxypropionamide]: the ED50 in data set [2] (read-out: MES, ED50, rat, po) was approximately 30 mg/kg. Besides, in the data set on 6 Hz seizures, the “6 Hz, ED50” value is <30 [0.25] milligrams per kilogram. Besides, the “Tox, TD50” value with behavioral toxicity (setting [5]) is >30 [0.25, 4.0] milligrams per kilogram.
For the molecule `C#CCOCC(NC(C)=O)C(=O)NCc1ccc(N=[N+]=[N-])cc1` (centres unmarked) [compound 8], the “seizure activity in the 6 Hz seizure model assay” value with 6 Hz seizures is “excellent seizure activity”.
`C#CCOC[C@H](NC(C)=O)C(=O)NCc1ccc(N=[N+]=[N-])cc1` [(S)-8, (S)—N-(4-Azidobenzyl)-2-acetamido-3-(prop-2-ynyloxy)propanamide] yielded a melting point of 135 to 136.5 °C. In addition, the “Tox, TD50” value in data set [1] (setting [4]) is reported as more than 300 mg/kg. Further, the “Tox, TD50” value in the data set with behavioral toxicity (time (h) in brackets, Table 2) is more than 30 mg/kg.
Molecule `C#CCOC[C@@H](NC(C)=O)C(=O)NCc1ccc(N=C=S)cc1` returned a melting point of 157 to 159 °C.
Take `CCOCC(NC(C)=O)C(=O)NCc1ccccc1` (racemic) [(R,S)-10, reference compound]: the “MES, ED50” value in data set [3] (mice, ip) was 17 mg/kg.
Regarding `C#CCOC[C@H](NC(C)=O)C(=O)NCc1ccccc1` [(S)-7, (S)—N-Benzyl-2-acetamido-3-(prop-2-ynyloxy)propanamide], the melting point lay in the range of 148.5 to 149 °C. The “Tox, TD50” value in data set [1] (setting [4]) is given as more than 300 mg/kg. Also, in the data set with behavioral toxicity (time (h) in brackets, Table 2), the “Tox, TD50” value is given as more than 30 mg/kg.
Consider `COC[C@H](NC(C)=O)C(=O)NCc1ccccc1` [(S)—B, reference compound], for which the “Tox, TD50” value in data set [1] (time (h) in brackets, Table 2) was >300 [0.5].
Consider `CC(=O)NC(C(=O)NCc1ccccc1)c1ccco1` (racemic) [(R,S)-5, reference compound], for which, in data set [3] (setting [10]), the “MES, ED50” value was 10 (9.1-12) mg/kg.
In the case of `C#CCOC[C@@H](NC(C)=O)C(=O)NCc1ccc(N=[N+]=[N-])cc1` [(R)-8, (R)—N-(4-Azidobenzyl)-2-acetamido-3-(prop-2-ynyloxy)propanamide], the melting point fell in the range of 135 to 136 °C.
For the molecule `CC(=O)NC(C(=O)NCc1ccc(OCc2cccc(F)c2)cc1)c1ccccn1` (racemic) [(R,S)-9, N-4-(3-Fluorobenzyloxy)benzyl 2-Acetamido-2-(pyridin-2-yl)acetamide], the “MES, ED50” value in data set [3] (setting [11]) was 28 [0.5] (20-36) milligrams per kilogram. Also, the ED50 in data set [2] (setting [7]) is more than 30 mg/kg. Also, in the data set with behavioral toxicity (behavioral toxicity, Table 3), the “Tox, TD50” value is >30 [4] milligrams per kilogram.
With `COC[C@H](NC(C)=O)C(=O)NCc1ccc(OCc2cccc(F)c2)cc1` [(S)-10, (S)-2-Acetamido-N-(4-(3-fluorobenzyloxy)benzyl)-3-methoxypropanamide], the “MES, ED50” value in data set [3] (setting [11]) was more than 300 milligrams per kilogram. Besides, in data set [1] (rotorod test, Table 3), the “Tox, TD50” value is more than 300 milligrams per kilogram.
On to `COC[C@H](NC(C)=O)C(=O)NCc1ccc(OCc2cccc(F)c2)cc1` [(S)-3, (S)-2-Acetamido-N-(4-(3-fluorobenzyloxy)benzyl)-3-methoxypropanamide], for which, in data set [1] (time (h) in brackets, Table 2), the “Tox, TD50” value is >300 [0.5].
For `COC[C@@H](NC(C)=O)C(=O)NCc1ccc([N+](=O)[O-])cc1` [F, reference compound], the ED50 in data set [3] (mice (ip), text b213) was 100 to 300 mg/kg.
In data set [3] (mice, ip, time (h) in brackets, Table 2, footnotes not given), `COC[C@@H](NC(C)=O)C(=O)NCc1ccc(C2(C(F)(F)F)N=N2)cc1` [(R)-9] had an ED50 of 15.1 mg/kg.
As to `CC(=O)NC(C)C(=O)NCc1ccccc1` (racemic) [(R,S)-4, reference compound], the “MES, ED50” value in data set [3] (setting [10]) is 77 (67-89) mg/kg.
As to `COC[C@@H](NC(C)=O)C(=O)NCc1ccc(COCc2cccc(F)c2)cc1` [(R)-18, (R)—N-4-(((3-Fluoro)benzyloxy)methyl)benzyl 2-Acetamido-3-methoxypropionamide], the melting point lay within 140 to 142 °C.

The record behind these values is patent US8933065B2, “N-benzylamide substituted derivatives of 2-(acylamido)acetic acid and 2-(acylamido)propionic acids: potent neurological agents” (The University of North Carolina at Chapel Hill, priority 2008, dated 2015).
